Measured values taken from patent publication US20250042914A1, “PIKFYVE KINASE INHIBITOR” (HANMI PHARM. CO., LTD., priority 2021, published 2025).
Counter-ions that a name gives are not always drawn.

Each compound was assayed against human-derived PIKfyve kinase (Homo sapiens (Human), UniProt Q9Y2I7) (assay: PIKfyve enzyme inhibition assay (ADP-Glo)). Conditions: PIKfyve enzyme inhibitory assay; PI(3)P 10 μm, ATP 2 μm, 60 minutes.
Type: biochemical
Experimental: For each of the compounds prepared in Examples 1 to 33, the PIKfyve enzyme inhibitory activity was measured by using a QS S Assis PIKFYVE (PIP5K3)_ADP-Glo™ Kit (Cat. #11-118) made by Carna Bioscience. 5 μL of each of human-derived PIKfyve kinase, PI(3)P, and ATP solution was added to a 384-well plate (such that final concentrations of each solution are 375 ng/ml, 10 μm, and 2 μm, respectively). The compound to be evaluated underwent serial dilution according to the set concentrations, and 5 μL of the diluted solution was added to each well and caused a reaction for 60 minutes. MgCl2 was mixed in ADP-Glo™ solution (Promega, Cat. #V9102) to a final concentration of 100 mM, and 20 μL of the mixed solution was added to each well and caused a reaction at room temperature for 40 minutes. 40 μL of kinase detection solution was added to each well and caused a reaction at room temperature for 40 minutes. Then, the luminescence signals were detected by using a Synergy™ NEO microplate analyzer. Well to which no enzyme was added were used as a negative control, whereas wells to which no drug was added were used as a positive control, so as to calculate the enzyme inhibitory ability (%) of drugs. The 50% inhibitor concentration (IC50) values were calculated by using a GraphPad Prism software.
In Table 1, when the case where the IC50 value was 50 nM or less was indicated as A, the case where the IC50 value was greater than 50 nM but equal to or less than 100 nM was indicated as B, and the case where the IC50 value was greater than 100 nM was indicated as C.

human-derived PIKfyve kinase, sequence (Q9Y2I7 whole entry): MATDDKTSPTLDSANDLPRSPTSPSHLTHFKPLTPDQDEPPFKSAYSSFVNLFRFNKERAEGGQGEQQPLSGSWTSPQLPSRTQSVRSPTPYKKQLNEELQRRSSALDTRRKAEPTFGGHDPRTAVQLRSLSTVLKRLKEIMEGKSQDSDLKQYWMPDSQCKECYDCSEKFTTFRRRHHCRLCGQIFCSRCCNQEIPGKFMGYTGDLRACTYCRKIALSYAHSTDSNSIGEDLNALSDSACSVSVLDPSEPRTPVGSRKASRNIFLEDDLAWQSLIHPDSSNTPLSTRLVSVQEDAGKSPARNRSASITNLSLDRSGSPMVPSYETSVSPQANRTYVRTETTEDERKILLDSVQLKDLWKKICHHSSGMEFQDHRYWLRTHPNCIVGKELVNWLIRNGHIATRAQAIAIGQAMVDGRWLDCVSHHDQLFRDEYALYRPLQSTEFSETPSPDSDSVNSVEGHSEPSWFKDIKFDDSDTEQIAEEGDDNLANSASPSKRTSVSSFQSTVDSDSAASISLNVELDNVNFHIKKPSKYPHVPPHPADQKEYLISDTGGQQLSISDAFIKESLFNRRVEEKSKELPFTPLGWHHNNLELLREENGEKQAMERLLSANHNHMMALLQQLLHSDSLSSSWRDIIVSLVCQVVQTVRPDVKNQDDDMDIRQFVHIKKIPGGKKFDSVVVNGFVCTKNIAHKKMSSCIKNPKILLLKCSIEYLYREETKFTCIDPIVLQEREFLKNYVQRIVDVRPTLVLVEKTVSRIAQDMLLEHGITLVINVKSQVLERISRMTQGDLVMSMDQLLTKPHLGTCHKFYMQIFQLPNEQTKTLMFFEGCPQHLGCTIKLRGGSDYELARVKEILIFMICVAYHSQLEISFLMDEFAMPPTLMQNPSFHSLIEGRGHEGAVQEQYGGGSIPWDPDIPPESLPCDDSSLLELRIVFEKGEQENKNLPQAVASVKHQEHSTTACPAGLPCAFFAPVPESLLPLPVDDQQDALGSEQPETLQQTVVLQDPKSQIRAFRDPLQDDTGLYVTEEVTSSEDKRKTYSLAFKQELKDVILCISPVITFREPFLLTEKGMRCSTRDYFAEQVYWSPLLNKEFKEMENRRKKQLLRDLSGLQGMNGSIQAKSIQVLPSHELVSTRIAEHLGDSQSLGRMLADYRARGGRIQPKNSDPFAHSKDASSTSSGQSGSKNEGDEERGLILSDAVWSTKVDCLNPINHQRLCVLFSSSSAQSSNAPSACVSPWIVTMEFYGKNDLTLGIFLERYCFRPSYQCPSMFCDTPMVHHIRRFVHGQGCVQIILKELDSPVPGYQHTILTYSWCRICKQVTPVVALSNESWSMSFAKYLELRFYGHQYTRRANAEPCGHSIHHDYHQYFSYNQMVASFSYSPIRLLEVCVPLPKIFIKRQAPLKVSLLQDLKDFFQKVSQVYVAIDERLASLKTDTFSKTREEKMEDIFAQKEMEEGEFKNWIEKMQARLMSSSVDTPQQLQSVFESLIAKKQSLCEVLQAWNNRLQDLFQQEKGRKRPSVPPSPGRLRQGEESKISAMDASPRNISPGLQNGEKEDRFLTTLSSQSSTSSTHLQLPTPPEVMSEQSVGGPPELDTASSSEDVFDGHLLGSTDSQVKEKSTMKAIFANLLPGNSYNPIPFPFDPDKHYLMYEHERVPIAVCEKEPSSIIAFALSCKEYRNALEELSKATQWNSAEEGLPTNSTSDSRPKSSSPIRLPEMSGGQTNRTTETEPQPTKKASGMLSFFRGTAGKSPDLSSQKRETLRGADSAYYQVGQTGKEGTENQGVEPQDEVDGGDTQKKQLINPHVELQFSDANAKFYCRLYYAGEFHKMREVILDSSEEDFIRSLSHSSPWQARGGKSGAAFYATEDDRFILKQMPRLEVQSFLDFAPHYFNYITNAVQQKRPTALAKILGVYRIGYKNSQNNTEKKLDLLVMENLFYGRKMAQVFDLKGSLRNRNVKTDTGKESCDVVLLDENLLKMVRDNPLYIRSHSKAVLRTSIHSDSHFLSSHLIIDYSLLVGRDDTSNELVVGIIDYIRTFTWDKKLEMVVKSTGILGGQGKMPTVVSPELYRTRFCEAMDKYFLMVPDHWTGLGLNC

| Structure (SMILES) | IC50 |
| --- | --- |
| O=C(Nc1cccc(-c2nc(N3CCOCC3)c3sc(-c4cccnc4)cc3n2)c1)C1CCN(CCO)CC1 [Example 26, 1-(2-hydroxyethyl)-N-(3-(4-morpholino-6-(pyridin-3-yl)thieno[3,2-d]pyrimidin-2-yl)phenyl)piperidine-4-carboxamide] | 50 to 100 nM |
| O=C(Nc1cccc(-c2nc(N3CCOCC3)c3sc(-c4cccnc4)cc3n2)c1)c1ccncc1 [Example 2, N-(3-(4-morpholino-6-(pyridin-3-yl)thieno[3,2-d]pyrimidin-2-yl)phenyl)isonicotinamide] | ≤ 50 nM |
| Cc1ncoc1C(=O)Nc1cccc(-c2nc(N3CCOCC3)c3sc(-c4cccnc4)cc3n2)c1 [Example 16, 4-methyl-N-(3-(4-morpholino-6-(pyridin-3-yl)thieno[3,2-d]pyrimidin-2-yl)phenyl) oxazole-5-carboxamide] | ≤ 50 nM |
| Cc1ncc(C(=O)Nc2cccc(-c3nc(N4CCOCC4)c4sc(-c5cccnc5)cc4n3)c2)o1 [Example 15, 2-methyl-N-(3-(4-morpholino-6-(pyridin-3-yl)thieno[3,2-d]pyrimidin-2-yl)phenyl) oxazole-5-carboxamide] | 50 to 100 nM |
| O=C(Nc1cccc(-c2nc(N3CCOCC3)c3sc(-c4cnco4)cc3n2)c1)c1ccncc1 [Example 3, N-(3-(4-morpholino-6-(oxazol-5-yl)thieno[3,2-d]pyrimidin-2-yl)phenyl)isonicotinamide] | ≤ 50 nM |
| O=CN1CCC(C(=O)Nc2cccc(-c3nc(N4CCOCC4)c4sc(-c5cccnc5)cc4n3)c2)CC1 [Example 28, 1-formyl-N-(3-(4-morpholino-6-(pyridin-3-yl)thieno[3,2-d]pyrimidin-2-yl)phenyl)piperidine-4-carboxamide] | > 100 nM |
| O=C(Nc1cccc(-c2nc(N3CCOCC3)c3sc(-c4ccncc4)cc3n2)c1)c1ccncc1 [Example 1, N-(3-(4-morpholino-6-(pyridin-4-yl)thieno[3,2-d]pyrimidin-2-yl)phenyl)isonicotinamide] | ≤ 50 nM |
| Nc1ccc(-c2cc3nc(-c4cccc(NC(=O)c5cccnc5)c4)nc(N4CCOCC4)c3s2)cc1 [Example 6, N-(3-(6-(4-aminophenyl)-4-morpholinothieno[3,2-d]pyrimidin-2-yl)phenyl)nicotinamide hydrochloride] | ≤ 50 nM |
| O=C(Nc1cccc(-c2nc(N3CCOCC3)c3sc(-c4cccnc4)cc3n2)c1)[C@H]1CC[C@@H](O)CC1 [Example 32, (1s,4s)-4-hydroxy-N-(3-(4-morpholino-6-(pyridin-3-yl)thieno[3,2-d]pyrimidin-2-yl)phenyl)cyclohexane-1-carboxamide] | ≤ 50 nM |
| CC(=O)N1CCC(C(=O)Nc2cccc(-c3nc(N4CCOCC4)c4sc(-c5cccnc5)cc4n3)c2)CC1 [Example 29, 1-acetyl-N-(3-(4-morpholino-6-(pyridin-3-yl)thieno[3,2-d]pyrimidin-2-yl)phenyl)piperidine-4-carboxamide] | > 100 nM |
| O=C(Nc1cccc(-c2nc(N3CCOCC3)c3sc(-c4cccnc4)cc3n2)c1)c1ncco1 [Example 14, N-(3-(4-morpholino-6-(pyridin-3-yl)thieno[3,2-d]pyrimidin-2-yl)phenyl) oxazole-2-carboxamide] | ≤ 50 nM |
| O=C(Nc1cccc(-c2nc(N3CCOCC3)c3sc(-c4ccncc4)cc3n2)c1)c1cccnc1 [Example 4, N-(3-(4-morpholino-6-(pyridin-4-yl)thieno[3,2-d]pyrimidin-2-yl)phenyl)nicotinamide] | ≤ 50 nM |
| Cc1ncc(C(=O)Nc2cccc(-c3nc(N4CCOCC4)c4sc(-c5cccnc5)cc4n3)c2)s1 [Example 21, 2-methyl-N-(3-(4-morpholino-6-(pyridin-3-yl)thieno[3,2-d]pyrimidin-2-yl)phenyl) thiazole-5-carboxamide] | ≤ 50 nM |
| O=C(Nc1cccc(-c2nc(N3CCOCC3)c3sc(-c4cccnc4)cc3n2)c1)c1nccs1 [Example 20, N-(3-(4-morpholino-6-(pyridin-3-yl)thieno[3,2-d]pyrimidin-2-yl)phenyl) thiazole-2-carboxamide] | > 100 nM |
| COCCN1CCC(C(=O)Nc2cccc(-c3nc(N4CCOCC4)c4sc(-c5cccnc5)cc4n3)c2)CC1 [Example 27, 1-(2-methoxyethyl)-N-(3-(4-morpholino-6-(pyridin-3-yl)thieno[3,2-d]pyrimidin-2-yl)phenyl)piperidine-4-carboxamide] | 50 to 100 nM |
| O=C(Nc1cccc(-c2nc(N3CCOCC3)c3sc(-c4cccnc4)cc3n2)c1)c1cnco1 [Example 13, N-(3-(4-morpholino-6-(pyridin-3-yl)thieno[3,2-d]pyrimidin-2-yl)phenyl) oxazole-5-carboxamide] | ≤ 50 nM |

| Structure (SMILES) | IC50 |
| --- | --- |
| O=C(Nc1cccc(-c2nc(N3CCOCC3)c3sc(-c4ccnc5[nH]ncc45)cc3n2)c1)c1cccnc1 [Example 10, N-(3-(4-morpholino-6-(1H-pyrazolo[3,4-b]pyridin-4-yl)thieno[3,2-d]pyrimidin-2-yl)phenyl)nicotinamide] | 50 to 100 nM |
| O=C(Nc1cccc(-c2nc(N3CCOCC3)c3sc(-c4cccnc4)cc3n2)c1)c1cncs1 [Example 19, N-(3-(4-morpholino-6-(pyridin-3-yl)thieno[3,2-d]pyrimidin-2-yl)phenyl) thiazole-5-carboxamide] | ≤ 50 nM |
| O=C(Nc1cccc(-c2nc(N3CCOCC3)c3sc(-c4cccnc4)cc3n2)c1)C1CCCNC1 (centres unmarked) [Example 24, N-(3-(4-morpholino-6-(pyridin-3-yl)thieno[3,2-d]pyrimidin-2-yl)phenyl)piperidine-3-carboxamide] | ≤ 50 nM |
| O=C(Nc1cccc(-c2nc(N3CCOCC3)c3sc(-c4cccnc4)cc3n2)c1)c1cocn1 [Example 12, N-(3-(4-morpholino-6-(pyridin-3-yl)thieno[3,2-d]pyrimidin-2-yl)phenyl) oxazole-4-carboxamide] | ≤ 50 nM |
| Cc1nc(C)c(C(=O)Nc2cccc(-c3nc(N4CCOCC4)c4sc(-c5cccnc5)cc4n3)c2)s1 [Example 23, 2,4-dimethyl-N-(3-(4-morpholino-6-(pyridin-3-yl)thieno[3,2-d]pyrimidin-2-yl)phenyl) thiazole-5-carboxamide] | 50 to 100 nM |
| O=C(Nc1cccc(-c2nc(N3CCOCC3)c3sc(-c4cnco4)cc3n2)c1)c1cocn1 [Example 33, N-(3-(4-morpholino-6-(oxazol-5-yl)thieno[3,2-d]pyrimidin-2-yl)phenyl)oxazole-4-carboxamide] | ≤ 50 nM |
| O=C(Nc1cccc(-c2nc(N3CCOCC3)c3sc(-c4ccnc5[nH]ccc45)cc3n2)c1)c1cccnc1 [Example 9, N-(3-(4-morpholino-6-(1H-pyrrolo[2,3-b]pyridin-4-yl)thieno[3,2-d]pyrimidin-2-yl)phenyl)nicotinamide] | ≤ 50 nM |
| O=C(Nc1cccc(-c2nc(N3CCOCC3)c3sc(-c4cccnc4)cc3n2)c1)C1CCNCC1 [Example 25, N-(3-(4-morpholino-6-(pyridin-3-yl)thieno[3,2-d]pyrimidin-2-yl)phenyl)piperidine-4-carboxamide] | ≤ 50 nM |
| O=C(Nc1cccc(-c2nc(N3CCOCC3)c3sc(-c4cccnc4)cc3n2)c1)c1cscn1 [Example 18, N-(3-(4-morpholino-6-(pyridin-3-yl)thieno[3,2-d]pyrimidin-2-yl)phenyl) thiazole-4-carboxamide] | > 100 nM |
| COC(=O)N1CCC(C(=O)Nc2cccc(-c3nc(N4CCOCC4)c4sc(-c5cccnc5)cc4n3)c2)CC1 [Example 30, methyl 4-((3-(4-morpholino-6-(pyridin-3-yl)thieno[3,2-d]pyrimidin-2-yl)phenyl)carbamoyl)piperidine-1-carboxylate] | > 100 nM |
| O=C(Nc1cccc(-c2nc(N3CCOCC3)c3sc(-c4cccnc4)cc3n2)c1)c1cccnc1 [Example 5, N-(3-(4-morpholino-6-(pyridin-3-yl)thieno[3,2-d]pyrimidin-2-yl)phenyl)nicotinamide] | ≤ 50 nM |
| O=C(Nc1cccc(-c2nc(N3CCOCC3)c3sc(-c4cncc5[nH]ccc45)cc3n2)c1)c1cccnc1 [Example 11, N-(3-(4-morpholino-6-(1H-pyrrolo[2,3-c]pyridin-4-yl)thieno[3,2-d]pyrimidin-2-yl)phenyl)nicotinamide] | > 100 nM |
| CCOC(=O)N1CCC(C(=O)Nc2cccc(-c3nc(N4CCOCC4)c4sc(-c5cccnc5)cc4n3)c2)CC1 [Example 31, ethyl 4-((3-(4-morpholino-6-(pyridin-3-yl)thieno[3,2-d]pyrimidin-2-yl)phenyl)carbamoyl)piperidine-1-carboxylate] | ≤ 50 nM |
| O=C(Nc1cccc(-c2nc(N3CCOCC3)c3sc(-c4cnco4)cc3n2)c1)c1cccnc1 [Example 7, N-(3-(4-morpholino-6-(oxazol-5-yl)thieno[3,2-d]pyrimidin-2-yl)phenyl)nicotinamide] | ≤ 50 nM |
| Cc1ncsc1C(=O)Nc1cccc(-c2nc(N3CCOCC3)c3sc(-c4cccnc4)cc3n2)c1 [Example 22, 4-methyl-N-(3-(4-morpholino-6-(pyridin-3-yl)thieno[3,2-d]pyrimidin-2-yl)phenyl) thiazole-5-carboxamide] | ≤ 50 nM |
| Cc1nc(C)c(C(=O)Nc2cccc(-c3nc(N4CCOCC4)c4sc(-c5cccnc5)cc4n3)c2)o1 [Example 17, 2,4-dimethyl-N-(3-(4-morpholino-6-(pyridin-3-yl)thieno[3,2-d]pyrimidin-2-yl)phenyl) oxazole-5-carboxamide] | ≤ 50 nM |
